PubChem BioAssay (NCI)
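Dose response: 5 concentrations. Exposure: 48 h. Format: 96-well plates. Endpoint: linear interpolation; highest concentration if not reached. TGI is the concentration that stops growth completely.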

Assays:
Assay in all cases: DTP human tumour cell line panel, 48 h
CCRF-CEM leukemia = tested on: CCRF-CEM leukemia
EKVX NSCLC = tested on: EKVX NSCLC
TK-10 renal = tested on: TK-10 renal
SN12C renal = tested on: SN12C renal
SF-295 CNS = tested on: SF-295 CNS
SR leukemia = tested on: SR leukemia
MOLT-4 leukemia = tested on: MOLT-4 leukemia
COLO 205 colon = tested on: COLO 205 colon
SK-MEL-2 melanoma = tested on: SK-MEL-2 melanoma
RPMI-8226 leukemia = tested on: RPMI-8226 leukemia
SF-268 CNS = tested on: SF-268 CNS
DMS 273 small cell lung = tested on: DMS 273 small cell lung
A549 NSCLC = tested on: A549 NSCLC
UACC-257 melanoma = tested on: UACC-257 melanoma
SF-539 CNS = tested on: SF-539 CNS
HCT-15 colon = tested on: HCT-15 colon
SW-620 colon = tested on: SW-620 colon
786-0 renal = tested on: 786-0 renal
UO-31 renal = tested on: UO-31 renal
KM12 colon = tested on: KM12 colon
KM20L2 colon = tested on: KM20L2 colon
OVCAR-5 ovarian = tested on: OVCAR-5 ovarian
ACHN renal = tested on: ACHN renal
U251 CNS = tested on: U251 CNS
HT29 colon = tested on: HT29 colon
HL-60(TB) leukemia = tested on: HL-60(TB) leukemia
SNB-19 CNS = tested on: SNB-19 CNS
LXFL 529 NSCLC = tested on: LXFL 529 NSCLC
SK-MEL-28 melanoma = tested on: SK-MEL-28 melanoma
HCC-2998 colon = tested on: HCC-2998 colon
NCI-H460 lung = tested on: NCI-H460 lung
LOX IMVI melanoma = tested on: LOX IMVI melanoma
NCI-H23 lung = tested on: NCI-H23 lung
DMS 114 small cell lung = tested on: DMS 114 small cell lung
HOP-62 NSCLC = tested on: HOP-62 NSCLC
NCI-H226 lung = tested on: NCI-H226 lung
OVCAR-8 ovarian = tested on: OVCAR-8 ovarian
OVCAR-3 ovarian = tested on: OVCAR-3 ovarian
M14 melanoma = tested on: M14 melanoma
K-562 leukemia = tested on: K-562 leukemia
A498 renal = tested on: A498 renal
SNB-78 CNS = tested on: SNB-78 CNS
MALME-3M melanoma = tested on: MALME-3M melanoma
SK-MEL-5 melanoma = tested on: SK-MEL-5 melanoma
HCT-116 colon = tested on: HCT-116 colon
CAKI-1 renal = tested on: CAKI-1 renal
IGROV1 ovarian = tested on: IGROV1 ovarian
DLD-1 colon = tested on: DLD-1 colon
HOP-92 NSCLC = tested on: HOP-92 NSCLC
UACC-62 melanoma = tested on: UACC-62 melanoma
OVCAR-4 ovarian = tested on: OVCAR-4 ovarian
M19-MEL melanoma = tested on: M19-MEL melanoma
RXF 393 renal = tested on: RXF 393 renal
HOP-18 NSCLC = tested on: HOP-18 NSCLC
SNB-75 CNS = tested on: SNB-75 CNS

O=C(O)CCSC(=O)Nc1cccc(F)c1
TGI (CCRF-CEM leukemia): > 100 µM
TGI (EKVX NSCLC): > 100 µM
TGI (TK-10 renal): > 100 µM
TGI (SN12C renal): > 100 µM
TGI (SF-295 CNS): > 100 µM
TGI (SR leukemia): > 100 µM
TGI (MOLT-4 leukemia): > 100 µM
TGI (COLO 205 colon): > 100 µM
TGI (SK-MEL-2 melanoma): > 100 µM
TGI (RPMI-8226 leukemia): > 100 µM
TGI (SF-268 CNS): > 100 µM
TGI (DMS 273 small cell lung): > 100 µM
TGI (A549 NSCLC): > 100 µM
TGI (UACC-257 melanoma): > 100 µM
TGI (SF-539 CNS): > 100 µM
TGI (HCT-15 colon): > 100 µM
TGI (SW-620 colon): > 100 µM
TGI (786-0 renal): > 100 µM
TGI (UO-31 renal): > 100 µM
TGI (KM12 colon): > 100 µM
TGI (KM20L2 colon): > 100 µM
TGI (OVCAR-5 ovarian): > 100 µM
TGI (ACHN renal): > 100 µM
TGI (U251 CNS): > 100 µM
TGI (HT29 colon): > 100 µM
TGI (HL-60(TB) leukemia): > 100 µM
TGI (SNB-19 CNS): > 100 µM
TGI (LXFL 529 NSCLC): > 100 µM
TGI (SK-MEL-28 melanoma): > 100 µM
TGI (HCC-2998 colon): > 100 µM
TGI (NCI-H460 lung): > 100 µM
TGI (LOX IMVI melanoma): > 100 µM
TGI (NCI-H23 lung): > 100 µM
TGI (DMS 114 small cell lung): > 100 µM
TGI (HOP-62 NSCLC): 95.7 µM
TGI (NCI-H226 lung): > 100 µM
TGI (OVCAR-8 ovarian): > 100 µM
TGI (OVCAR-3 ovarian): > 100 µM
TGI (M14 melanoma): 45.4 µM
TGI (K-562 leukemia): > 100 µM
TGI (A498 renal): > 100 µM
TGI (SNB-78 CNS): > 100 µM

CC(=O)N1[C@H](C(=O)O)CS[C@H]1c1ccncc1
TGI (CCRF-CEM leukemia): > 100 µM
TGI (EKVX NSCLC): > 100 µM
TGI (TK-10 renal): > 100 µM
TGI (SN12C renal): > 100 µM
TGI (SF-295 CNS): > 100 µM
TGI (SR leukemia): > 100 µM
TGI (MOLT-4 leukemia): > 100 µM
TGI (COLO 205 colon): > 100 µM
TGI (RPMI-8226 leukemia): > 100 µM
TGI (SF-268 CNS): > 100 µM
TGI (A549 NSCLC): > 100 µM
TGI (UACC-257 melanoma): > 100 µM
TGI (SF-539 CNS): > 100 µM
TGI (HCT-15 colon): > 100 µM
TGI (MALME-3M melanoma): > 100 µM
TGI (SW-620 colon): > 100 µM
TGI (786-0 renal): > 100 µM
TGI (UO-31 renal): > 100 µM
TGI (KM12 colon): > 100 µM
TGI (KM20L2 colon): > 100 µM
TGI (SK-MEL-5 melanoma): > 100 µM
TGI (OVCAR-5 ovarian): > 100 µM
TGI (ACHN renal): > 100 µM
TGI (HT29 colon): > 100 µM
TGI (HCT-116 colon): > 100 µM
TGI (CAKI-1 renal): > 100 µM
TGI (HL-60(TB) leukemia): > 100 µM
TGI (SNB-19 CNS): > 100 µM
TGI (LXFL 529 NSCLC): > 100 µM
TGI (SK-MEL-28 melanoma): > 100 µM
TGI (HCC-2998 colon): > 100 µM
TGI (IGROV1 ovarian): > 100 µM
TGI (DLD-1 colon): > 100 µM
TGI (NCI-H460 lung): > 100 µM
TGI (LOX IMVI melanoma): > 100 µM
TGI (NCI-H23 lung): > 100 µM
TGI (HOP-92 NSCLC): > 100 µM
TGI (UACC-62 melanoma): > 100 µM
TGI (DMS 114 small cell lung): > 100 µM
TGI (OVCAR-4 ovarian): > 100 µM
TGI (HOP-62 NSCLC): > 100 µM
TGI (NCI-H226 lung): > 100 µM
TGI (M19-MEL melanoma): > 100 µM
TGI (OVCAR-8 ovarian): > 100 µM
TGI (OVCAR-3 ovarian): > 100 µM
TGI (M14 melanoma): > 100 µM
TGI (RXF 393 renal): > 100 µM
TGI (HOP-18 NSCLC): > 100 µM
TGI (K-562 leukemia): > 100 µM
TGI (A498 renal): > 100 µM
TGI (SNB-75 CNS): > 100 µM
TGI (SNB-78 CNS): > 100 µM
